# Like-named read-outs stand apart in the source and are kept apart here.
# Target: T1, full-length SARM1 (FL-SARM1) (Homo sapiens, UniProt Q6SZW1)
# T1 sequence (Q6SZW1 28-724): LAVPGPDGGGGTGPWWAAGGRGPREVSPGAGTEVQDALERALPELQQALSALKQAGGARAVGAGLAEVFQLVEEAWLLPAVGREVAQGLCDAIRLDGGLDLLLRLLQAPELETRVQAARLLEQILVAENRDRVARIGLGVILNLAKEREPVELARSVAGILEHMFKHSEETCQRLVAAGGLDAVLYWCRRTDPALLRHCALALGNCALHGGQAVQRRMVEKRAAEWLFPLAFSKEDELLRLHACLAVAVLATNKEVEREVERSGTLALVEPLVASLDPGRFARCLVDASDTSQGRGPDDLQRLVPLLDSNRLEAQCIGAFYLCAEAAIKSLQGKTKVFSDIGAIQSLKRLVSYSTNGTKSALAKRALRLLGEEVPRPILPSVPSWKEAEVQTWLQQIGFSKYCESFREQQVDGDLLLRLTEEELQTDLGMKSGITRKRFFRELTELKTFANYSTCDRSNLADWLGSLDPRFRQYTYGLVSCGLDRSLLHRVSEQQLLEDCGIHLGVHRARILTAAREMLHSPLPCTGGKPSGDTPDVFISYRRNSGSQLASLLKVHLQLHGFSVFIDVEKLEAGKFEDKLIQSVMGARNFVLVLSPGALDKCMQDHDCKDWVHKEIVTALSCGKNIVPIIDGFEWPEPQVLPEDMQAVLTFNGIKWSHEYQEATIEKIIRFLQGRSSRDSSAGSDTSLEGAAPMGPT
# Assay: FL-SARM1 cellular lysate assay (NAD/NADH-Glo detection of remaining NAD+, NMN-activated)
# [1] = Activity (μM) (IC50), 11 point curve
# [2] = read-out: Activity (IC50 class), 11 point curve
# [3] = Activity (IC50 class), 11 point curve
# Procedure: Preparation of full-length SARM1 (FL-SARM1) lysate: HEK293T cells (ATCC: CRL-3216) were grown on 150 mm TC-treated dishes to 80-90% confluency in complete DMEM (DMEM (Thermo Fisher: 11965175) supplemented with 10% HI—FBS (VWR: 10802-772), 1× Pen/Strep (Thermo Fisher: 15140122), 1×NEAA (Thermo Fisher: 1140050), 1× glutamax (Thermo Fisher: 35050061), and 1 mM sodium pyruvate (Thermo Fisher: 11360070)) at 37° C. and 5% CO2. One hour prior to transfection, the media was replaced with fresh, 37° C. complete DMEM (20 mL per one 150 mm dish) supplemented with additional 10 mM glucose (Alfa Aesar AAJ60067EQE). Per one 150 mm dish, 30 μg FL-SARM1 (SEQ. ID. 1; cloned in-house) plasmid was dissolved in 1 mL DMEM at ambient temperature and were mixed by inverting the tube 8-10 times. 90 μL of GenJet™ in vitro DNA transfection reagent (Ver2) was dissolved in 1 mL DMEM at ambient temperature and were mixed by inverting the tube 8-10 times. The plasmid and transfection agent solutions were combined, mixed by 8-10 inversions and incubated for 10 minutes at ambient temperature. 2 mL of this transfection mixture was added to each dish containing HEK293T cells as prepared above followed by a gentle mixing of 4-5 horizontal rotations. The dishes were incubated at 37° C. and 5% CO2 for 24 h. The dishes were removed from the incubator, the medium was aspirated and the cells were scraped off using cell scrapers in ice-cold 1×PBS (5 mL/dish, Thermo Fisher Scientific 10010023). The collected cells were centrifuged at 300 g for 5 minutes at 4° C. The supernatant was aspirated and the pellet was frozen at −80° C. until needed. The cell pellet from 30 dishes was dissolved in 30 mL 1×PBS supplemented with 4 tablets of Complete, Mini EDTA-free protease inhibitor cocktail at 4° C. This mixture was sonicated on ice for 10 minutes at 50% amplitude with a 1 second on/1 second off interval using a Model 120 sonicator (Thermo Fisher Scientific, FB120110). The lysate was centrifuged at 16000 g for 10 minutes at 4° C.
# To a white 384-well Proxiplate (PerkinElmer, PE-6008280) was added 50 nL/well of a DMSO solution containing test compounds followed by 7.5 μL/well of a 0.067 mg/mL solution of SARMi cellular lysate in reaction buffer (DPBS containing CHAPSO (0.1%) and fatty acid free BSA (0.032%)). The plate was centrifuged for 1 minute at 1000 RPM and then placed in an incubator at 23° C. for 15 minutes. To the wells were added 2.5 μL/well of a solution containing 40 M NAD^+ and 4 mM nicotinamide mononucleotide (NMN) in reaction buffer. The plate was centrifuged for 1 min at 1000 RPM, the plate was sealed and placed in an incubator at 23° C. for 3.5 hours before adding 3.5 μL/well of NAD/NADH-Glo™ solution (preparation as described by Promega using the extended detection protocol). The plate was centrifuged for 1 minute at 1000 RPM and then incubated at 23° C. for 20 minutes. 1 μL/well of a 3.625 mM solution of menadione in DMSO was added and the plate was centrifuged for 1 minute at 1000 RPM. Relative light units (RLU) were recorded using an Envision plate reader at a height of 6.5 mm.
# IC50 values were calculated from an 11 point curve using ½ log dilutions using a four-parameter logistic regression curve fit.
compound,measurement,setting,value
"Cc1ccc(NC(=O)C2CC3CC[C@@H]2C3)cc1-c1ccccn1 (single isomer, unassigned) [Example 140]",IC50,[1],0.9 µM
same,IC50,[2],0.0001 to 1 µM
Cc1ccc(NC(=O)C2C3CCC2(c2ccn(C)n2)C3)cc1-c1ncc(F)cn1 (mixture of isomers) [Example 317],IC50,[3],1 to 10 µM
same,IC50,[1],1 µM
"Cc1ccc(NC(=O)C2CCC2C)cc1-c1ccccn1 (stereo not shown) [Example 112, 2-methyl-N-(4-methyl-3-pyridin-2-ylphenyl)cyclobutane-1-carboxamide]",IC50,[3],1 to 10 µM
same,IC50,[1],1.7 µM
"Cc1ccc(NC(=O)[C@H]2C[C@H]3C[C@H]3N2c2ccncn2)cc1-c1ncc(F)cn1 [Example 265, (1R,3R,5R)-N-[3-(5-fluoropyrimidin-2-yl)-4-methylphenyl]-2-pyrimidin-4-yl-2-azabicyclo[3.1.0]hexane-3-carboxamide]",IC50,[3],1 to 10 µM
same,IC50,[1],1.9 µM
"Cc1ccc(NC(=O)N2CC3CC3(C(F)(F)F)C2)cc1-c1ccccn1 (stereo not shown) [Example 97, N-(4-methyl-3-pyridin-2-ylphenyl)-1-(trifluoromethyl)-3-azabicyclo[3.1.0]hexane-3-carboxamide]",IC50,[3],> 10 µM
same,IC50,[1],11 µM
"Cc1ccc(NC(=O)[C@H]2CC[C@@H](C3CC3)N2c2ccccn2)cc1-c1ncc(F)cn1 (racemic) [Example 273, cis-5-cyclopropyl-N-(3-(5-fluoropyrimidin-2-yl)-4-methylphenyl)-1-(pyridin-2-yl)pyrrolidine-2-carboxamide]",IC50,[3],1 to 10 µM
same,IC50,[1],1.9 µM
"Cc1ccc(NC(=O)[C@H]2C[C@H](C3CC3)C2)cc1-c1ccccn1 (single isomer, unassigned) [Example 121, trans-3-cyclopropyl-N-(4-methyl-3-pyridin-2-ylphenyl)cyclobutane-1-carboxamide]",IC50,[1],0.9 µM
same,IC50,[2],0.0001 to 1 µM
"Cc1cc(F)c(NC(=O)N2C3CCCC2C3)cc1-c1ncncn1 [Example 181, N-(2-fluoro-4-methyl-5-(1,3,5-triazin-2-yl)phenyl)-6-azabicyclo[3.1.1]heptane-6-carboxamide]",IC50,[3],1 to 10 µM
same,IC50,[1],7 µM
"Cc1ccc(NC(=O)N2C3CC2CN(CC(F)(F)F)C3)cc1-c1ccccn1 [Example 4, N-(4-methyl-3-(pyridin-2-yl)phenyl)-3-(2,2,2-trifluoroethyl)-3,6-diazabicyclo[3.1.1]heptane-6-carboxamide]",IC50,[1],0.4 µM
same,IC50,[2],0.0001 to 1 µM
"CC(=O)N1[C@H](C)CC[C@@H]1C(=O)Nc1ccc(C)c(-c2ncc(F)cn2)c1 [Example 286, (2R,5R)-1-acetyl-N-[3-(5-fluoropyrimidin-2-yl)-4-methylphenyl]-5-methylpyrrolidine-2-carboxamide]",IC50,[3],1 to 10 µM
same,IC50,[1],1.7 µM
"Cc1ccc(-c2cc(NC(=O)N3[C@@H]4C[C@@H](C)C[C@H]3C4)ccc2C)nn1 [Example 242, cis-3-methyl-N-[4-methyl-3-(6-methylpyridazin-3-yl)phenyl]-6-azabicyclo[3.1.1]heptane-6-carboxamide]",IC50,[1],0.07 µM
same,IC50,[2],0.0001 to 1 µM
"Cc1ccc(NC(=O)[C@@H]2C[C@H]3CC[C@@H]2C3)cc1-c1ccccn1 (single isomer, unassigned) [Example 138, cis-N-(4-methyl-3-pyridin-2-ylphenyl)bicyclo[2.2.1]heptane-2-carboxamide]",IC50,[1],0.7 µM
same,IC50,[2],0.0001 to 1 µM
"Cc1ccc(NC(=O)[C@@H]2[C@@H]3CC[C@H]2N(CC(F)(F)F)C3)cc1-c1ccccn1 (single isomer, unassigned) [Example 104, trans-N-(4-methyl-3-(pyridin-2-yl)phenyl)-2-(2,2,2-trifluoroethyl)-2-azabicyclo[2.2.1]heptane-7-carboxamide]",IC50,[3],1 to 10 µM
same,IC50,[1],2.6 µM
Cc1ccc(NC(=O)[C@H]2[C@@H]3CC[C@@H](C3)N2c2ncccn2)cc1-c1ncc(F)cn1 [Example 322],IC50,[3],> 10 µM
same,IC50,[1],13 µM
"O=C(Nc1ccc(C2CC2)c(-c2ccccn2)c1)N1C2CCCC1C2 [Example 34, N-(4-cyclopropyl-3-(pyridin-2-yl)phenyl)-6-azabicyclo[3.1.1]heptane-6-carboxamide]",IC50,[3],1 to 10 µM
same,IC50,[1],1.1 µM
"Cc1ccc(NC(=O)C2CCC23CC3)cc1-c1ccccn1 (racemic) [Example 113, N-(4-methyl-3-pyridin-2-ylphenyl)spiro[2.3]hexane-6-carboxamide]",IC50,[3],1 to 10 µM
same,IC50,[1],2.5 µM
"Cc1ccc(NC(=O)N2C3C[C@@H](C)C[C@H]2C3)cc1-c1cc(Cl)cnn1 [Example 216, cis-N-(3-(5-chloropyridazin-3-yl)-4-methylphenyl)-3-methyl-6-azabicyclo[3.1.1]heptane-6-carboxamide]",IC50,[1],0.01 µM
same,IC50,[2],0.0001 to 1 µM
"Cc1ccc(NC(=O)N2C3CC2CN(C(C)C(F)(F)F)C3)cc1-c1ccccn1 (stereo not shown) [Example 2, N-(4-Methyl-3-(pyridin-2-yl)phenyl)-3-(1,1,1-trifluoropropan-2-yl)-3,6-diazabicyclo[3.1.1]heptane-6-carboxamide]",IC50,[1],0.7 µM
same,IC50,[2],0.0001 to 1 µM
"Cc1ccc(NC(=O)N2CCCC(C)CC2)cc1-c1ncc(F)cn1 (racemic) [Example 213, N-(3-(5-fluoropyrimidin-2-yl)-4-methylphenyl)-4-methylazepane-1-carboxamide]",IC50,[1],0.2 µM
same,IC50,[2],0.0001 to 1 µM
"Cc1ccc(NC(=O)N2C3C[C@H](C)C[C@@H]2C3)cc1-c1ncc(F)cn1 [Example 51, cis-N-(3-(5-fluoropyrimidin-2-yl)-4-methylphenyl)-3-methyl-6-azabicyclo[3.1.1]heptane-6-carboxamide]",IC50,[1],0.01 µM
same,IC50,[2],0.0001 to 1 µM
"Cc1ccc(NC(=O)C(C)(O)C2CCC2)cc1-c1ccccn1 (racemic) [Example 118, 2-cyclobutyl-2-hydroxy-N-(4-methyl-3-pyridin-2-ylphenyl)propanamide]",IC50,[3],1 to 10 µM
same,IC50,[1],6.1 µM
"CCc1ccc(-c2cc(NC(=O)N3C4C[C@@H](C)C[C@H]3C4)ccc2C)nn1 [Example 234, cis-N-[3-(6-ethylpyridazin-3-yl)-4-methylphenyl]-3-methyl-6-azabicyclo[3.1.1]heptane-6-carboxamide]",IC50,[1],0.4 µM
same,IC50,[2],0.0001 to 1 µM
"Cc1ccc(NC(=O)N2C3C[C@@H](C)C[C@H]2C3)cc1-c1cccnn1 [Example 62, cis-3-methyl-N-(4-methyl-3-pyridazin-3-yl-phenyl)-6-azabicyclo[3.1.1]heptane-6-carboxamide]",IC50,[1],0.02 µM
same,IC50,[2],0.0001 to 1 µM
"CO[C@H]1C[C@@H]2C[C@H](C1)N2C(=O)Nc1ccc(C)c(-c2ccccn2)c1 [Example 45, trans-3-Methoxy-N-(4-methyl-3-(pyridin-2-yl)phenyl)-6-azabicyclo[3.1.1]heptane-6-carboxamide]",IC50,[1],0.5 µM
same,IC50,[2],0.0001 to 1 µM
"COC(C)[C@@]12CC(C[C@@H](C)C1)N2C(=O)Nc1ccc(C(F)(F)F)c(-c2nccnn2)c1 (single isomer, unassigned) [Example 212, cis-N-(3-(1,2,4-triazin-3-yl)-4-(trifluoromethyl)phenyl)-1-(1-methoxyethyl)-3-methyl-6-azabicyclo[3.1.1]heptane-6-carboxamide]",IC50,[3],1 to 10 µM
same,IC50,[1],9.6 µM
"Cc1ccc(NC(=O)C2(C3CCC3)CC2)cc1-c1cccnn1 [Example 295, 1-cyclobutyl-N-(4-methyl-3-pyridazin-3-ylphenyl)cyclopropane-1-carboxamide]",IC50,[3],> 10 µM
same,IC50,[1],13 µM
"Cc1ccc(NC(=O)C2C[C@H]3C[C@@H]23)cc1-c1ccccn1 (stereo partly drawn) [Example 117, cis-N-(4-methyl-3-pyridin-2-ylphenyl)bicyclo[2.1.0]pentane-2-carboxamide]",IC50,[3],1 to 10 µM
same,IC50,[1],4.6 µM
"Cc1ccc(NC(=O)N2C3CC2C(=O)N(C)C3)cc1-c1ccccn1 (stereo not shown) [Example 22, 3-methyl-N-(4-methyl-3-(pyridin-2-yl)phenyl)-2-oxo-3,6-diazabicyclo[3.1.1]heptane-6-carboxamide]",IC50,[3],1 to 10 µM
same,IC50,[1],2 µM
"Cc1ccc(NC(=O)N2C3C[C@@H]2CC[C@H]3C)cc1-c1ccccn1 (single isomer, unassigned) [Example 48, trans-2-methyl-N-(4-methyl-3-(pyridin-2-yl)phenyl)-6-azabicyclo[3.1.1]heptane-6-carboxamide]",IC50,[1],0.1 µM
same,IC50,[2],0.0001 to 1 µM
"Cc1cc(Cl)c(NC(=O)N2C3CCCC2C3)cc1-c1ccccn1 [Example 82, N-(2-chloro-4-methyl-5-pyridin-2-ylphenyl)-6-azabicyclo[3.1.1]heptane-6-carboxamide]",IC50,[3],1 to 10 µM
same,IC50,[1],1.5 µM
"Cc1ccc(NC(=O)N2C3C[C@@H](C)C[C@H]2C3)cc1-c1nncc(C(F)(F)F)n1 [Example 184, cis-3-methyl-N-(4-methyl-3-(5-(trifluoromethyl)-1,2,4-triazin-3-yl)phenyl)-6-azabicyclo[3.1.1]heptane-6-carboxamide]",IC50,[1],0.07 µM
same,IC50,[2],0.0001 to 1 µM
"Cc1ccc(NC(=O)N2C3CC2CN(C2CCC2)C3)cc1-c1ccccn1 [Example 6, 3-Cyclobutyl-N-(4-methyl-3-(pyridin-2-yl)phenyl)-3,6-diazabicyclo[3.1.1]heptane-6-carboxamide]",IC50,[3],1 to 10 µM
same,IC50,[1],4.2 µM
